Source: patent US20260274876A1, “3-PYRROLIDINE-INDOLE DIMERS AS SEROTONERGIC AGENTS USEFUL FOR THE TREATMENT OF DISORDERS RELATED THERETO” (MINDSET PHARMA INC., priority 2022, published 2026)

Tests used:
human 5-HT1A receptor = molecular target: T1, human 5-HT1A receptor (Homo sapiens, UniProt P08908); assay: Human 5-HT1A functional FLIPR assay (agonist mode); type: cell-based; set-up: expressed in transfected cells; details: h5-HT1A, curve fitting with activation (%) @ 10 mM with RFU (footnote)
T1 sequence (P08908 1-422): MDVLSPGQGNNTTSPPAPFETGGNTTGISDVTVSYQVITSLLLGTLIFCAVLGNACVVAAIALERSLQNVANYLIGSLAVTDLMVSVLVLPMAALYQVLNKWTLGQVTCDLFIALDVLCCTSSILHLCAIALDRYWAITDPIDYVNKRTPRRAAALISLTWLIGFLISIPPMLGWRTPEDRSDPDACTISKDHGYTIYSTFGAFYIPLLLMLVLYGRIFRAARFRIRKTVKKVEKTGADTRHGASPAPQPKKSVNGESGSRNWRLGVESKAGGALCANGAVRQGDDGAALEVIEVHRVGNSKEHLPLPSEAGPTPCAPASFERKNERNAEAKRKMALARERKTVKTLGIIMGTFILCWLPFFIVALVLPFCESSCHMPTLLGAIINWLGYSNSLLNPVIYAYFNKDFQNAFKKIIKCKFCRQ
Method: The potential excitatory effects of compounds targeting on 5-hydroxytryptamine receptor 1A (5-HT1A) under agonist mode was assessed.
HTR1A&Gα15-CHO cells were cultured in DMEM/F12 medium containing 10% dialyzed FBS, 1×penicillin-streptomycin and 600 μg/mL Hygromycin B. The cells were passaged about three times a week, maintained between ~30% to ~90% confluence.
• 1. The cell culture medium (DMEM/F12 medium containing 10% dialyzed FBS, 1×penicillin-streptomycin and 600 μg/mL Hygromycin B), TrypLE™ Express and DPBS was warmed to R.T. in advance. • 2. The cell culture medium was removed from flask. Washed cells with DPBS. • 3. 1 mL TrypLE™ Express was added to the flask, mixed well by gentle shaking and cells were incubated at 37° C. for a few minutes. • 4. The cells were checked for morphological change under microscope, the digestion was stopped by adding 2 mL cell culture medium to the flask when most of cells turned to round. • 5. The cell suspension was transferred into a 15 mL centrifuge tube, and then centrifuged at 1,200 rpm for 5 minutes. • 6. The supernatant was removed. The cell pellet were resuspended with 2 mL cell culture medium. • 7. The cell density were counted using cell counter. Only cells with >85% viability were used for the assay. • 8. Cells were diluted to 4×10^5/mL with cell culture medium. • 9. 30 μL/well cell suspensions were added into a 384-well cell plate (The cell density was 12,000 cells/well). • 10. The cell plate was incubated overnight at 37° C., 5% (v/v) CO2.
• 1. On the day of experiments, culture medium was removed from the cell plate. • 2. 10 μL of assay buffer (20 mM HEPES, in 1×HBSS, pH 7.4) was added to each well of the cell plate. • 3. 2×dye solution was prepared following the manufacture's instruction of the FLIPR® Calcium 6 assay kit: • i. The dye was diluted with assay buffer. • ii. probenecid was added to the final concentration of 5 mM. • iii. Vortexed vigorously for I-2 minutes, adjust pH to 7.4. • 4. 10 μL of 2×dye solution was added to each well of the cell plate. • 5. The cell plate was placed on plate shaker, followed by shaking at 600 rpm for 2 minutes. • 6. The plate was incubated at 37° C. for 2 hours followed by an additional 15-minute incubation at 25° C.
• 1. Serotonin was prepared to the concentration of 10 mM with DMSO, 3-folds serial dilutions were performed with DMSO. • 2. Prepare the test compound to the concentration of 10 mM with DMSO, preform 3-folds serial dilutions with DMSO. • 3. The compounds were added to a 384-well compound source plate. • 4. 90 nL/well of serial diluted compounds were transferred from source plate to a 384-well compound plate by using an Echo. • 5. 30 μL/well of assay buffer was added to the compound plate. • 6. The plate was mixed on-plate shaker for 2 minutes.
• 1. After the cells incubate with dye solution, the cell plate, compound plate containing 3×compounds and FLIPR tips were placed into FLIPR. • 2. 10 μL of 3×compounds were transferred from the compound plate to the cell plate by FLIPR. • 3. The plate was read for 160 sec with 1 sec interval to obtain the data of agonist mode.
• 1. The normalized fluorescence reading (RFU) was calculated as shown below, wherein Fmax and Fmin stand for maximum and minimum of calcium signal during defined time window:
[formula] • 2. EC50 was calculated by fitting RFU against log of compound concentrations with Hill equation using XLfit.

[1] = Liver microsomes stability, rat; details: for half-life at 2 μM / microsomal CLint at 2 μM: male, rat; for half-life at 2 μM / microsomal CLint at 2 μM / Remaining Percentage (%) after 60 min, Rat, With cofactors / Remaining Percentage (%) after 60 min, Rat, Without cofactors: rat liver microsomes
Method: (§1) 40 μL of 10 mM NADPH solution was added to each well. The final concentration of NADPH was 1 mM. The negative control samples were prepared by replacing NADPH with 40 μL of ultra-pure H2O. Samples were prepared in duplicate. Negative controls were prepared in singlet.
(§2) This study was performed in duplicate.
(§3) LC/MS analysis was performed for all samples from this study using a Shimadzu liquid chromatograph separation system equipped with degasser DGU-20A5R; solvent delivery unit LC-30AD; system controller SIL-30AC; column oven CTO-30A; CTC Analytics HTC PAL System. Mass spectrometric analysis was performed using a Triple Quad™ 5500 instrument.
(§4) All calculations were carried out using Microsoft Excel.
(§5) All calculations were carried out using Microsoft Excel. Peak areas were determined from extracted ion chromatograms.

[2] = Liver microsomes stability, mouse; details: for half-life at 2 μM / microsomal CLint at 2 μM: male, mouse; for half-life at 2 μM / microsomal CLint at 2 μM / Remaining Percentage (%) after 60 min, Mouse, With cofactors / Remaining Percentage (%) after 60 min, Mouse, Without cofactors: mouse liver microsomes
Method: as §1, §2, §3, §4, §5

In the case of `CN1CCC[C@@H]1Cc1c[nH]c2cccc(O)c12` [Compound 10, (R)-3-((1-methylpyrrolidin-2-yl)methyl)-1H-indol-4-ol], the “RFU@10 μM” value (human 5-HT1A receptor) is reported as 425 RFU.
With `[2H]C([2H])(c1c[nH]c2cccc(O)c12)[C@H]1CCCN1C([2H])([2H])[2H]` [Compound 13, (R)-3-((1-(methyl-d3)pyrrolidin-2-yl)methyl-d2)-1H-indol-4-ol] the “RFU@10 μM” value (human 5-HT1A receptor) was 307 RFU.
With `CN1CCC[C@@H]1Cc1c[nH]c2cccc(OC(=O)CCCC(=O)Oc3cccc4[nH]cc(C[C@H]5CCCN5C)c34)c12` [Compound I-13, Bis(3-(((R)-1-methylpyrrolidin-2-yl)methyl)-1H-indol-4-yl) glutarate] the half-life at 2 μM [1] was < 4.51 min, the microsomal CLint at 2 μM [1] was > 307 µL/min/mg and the “Remaining Percentage (%) after 60 min, Rat, With cofactors” value [1] was 0%. For the same compound, the “Remaining Percentage (%) after 60 min, Rat, Without cofactors” value [1] was 0%, the half-life at 2 μM [2] was < 4.51 min and the microsomal CLint at 2 μM [2] was > 307 µL/min/mg. The “Remaining Percentage (%) after 60 min, Mouse, With cofactors” value [2] was 0%, the “Remaining Percentage (%) after 60 min, Mouse, Without cofactors” value [2] was 0% and the “RFU@10 μM” value (human 5-HT1A receptor) was 87 RFU.
In the case of `[2H]C([2H])(c1c[nH]c2cccc(OC(=O)CCCC(=O)Oc3cccc4[nH]cc(C([2H])([2H])[C@H]5CCCN5C([2H])([2H])[2H])c34)c12)[C@H]1CCCN1C([2H])([2H])[2H]` [Compound I-22, bis(3-(((R)-1-(methyl-d3)pyrrolidin-2-yl)methyl-d2)-1H-indol-4-yl) glutarate], the half-life at 2 μM [1] is reported as < 4.51 min, the microsomal CLint at 2 μM [1] is reported as > 307 µL/min/mg and the “Remaining Percentage (%) after 60 min, Rat, With cofactors” value [1] is reported as 0%. For the same compound, the “Remaining Percentage (%) after 60 min, Rat, Without cofactors” value [1] was 0.22%, the half-life at 2 μM [2] was < 4.51 min and the microsomal CLint at 2 μM [2] was > 307 µL/min/mg. The “Remaining Percentage (%) after 60 min, Mouse, With cofactors” value [2] was 0%, the “Remaining Percentage (%) after 60 min, Mouse, Without cofactors” value [2] was 0% and the “RFU@10 μM” value (human 5-HT1A receptor) was 130 RFU.
With `CN(C)CCc1c[nH]c2cccc(O)c12` [Psilocin, 4-hydroxy-N,N-dimethyltryptamine, reference compound] the “t1/2 Rat” value ([1]; rat liver microsomes with NADPH, 2 μM) was 89.01 min, the “Remaining Percentage (%) after 60 min, Rat, With cofactors” value [1] was 62.68% and the “t1/2 Mouse” value ([2]; mouse liver microsomes with NADPH, 2 μM) was 141.71 min. The “Remaining Percentage (%) after 60 min, Mouse, With cofactors” value [2] was 96.89% and the “RFU@10 μM” value (human 5-HT1A receptor) was 140 RFU.
